IC50 and selectivity ratio data for 19 compounds are collected here from ChEMBL document CHEMBL4613217, “Synthesis, anti-plasmodial and cytotoxic evaluation of 1H-1,2,3-triazole/acyl hydrazide integrated tetrahydro-β-carboline-4-aminoquinoline conjugates” (Bioorg Med Chem Lett, 2020).

SMILES strings stand for the structures. pIC50: −log10 of the molar value.

In series [1] the test system is Plasmodium falciparum. The series is described as follows: Antiplasmodial activity against chloroquine-resistant Plasmodium falciparum W2. It counts as functional, organism-based.
Series [2] relates to Vero. The series is described as follows: Cytotoxicity against African green monkey Vero cells assessed as reduction in cell viability. It counts as cell-based. The settings on record: Chlorocebus sabaeus.
The nature of series [3]: Selectivity Index, ratio of IC50 for African green monkey Vero cells to IC50 for chloroquine-resistant Plasmodium falciparum W2. It counts as toxicity. The conditions noted are these: read-out: Ratio IC50.

Turning to `C[C@@H]1NC(C(=O)NNC(=O)CCNc2ccnc3cc(Cl)ccc23)Cc2c1[nH]c1ccccc21` (some centres not stated), the pIC50 (usually −log10 of the IC50, conventionally taken in molar units) in series [1] is 5.70. Take `O=C(CNc1ccnc2cc(Cl)ccc12)NNC(=O)C1Cc2c([nH]c3ccccc23)CN1` (configuration not stated): in series [1], the pIC50 is 5.36.

The compound `CCOC(=O)C1Cc2c([nH]c3ccccc23)CN1Cc1cn(-c2ccnc3cc(Cl)ccc23)nn1` (configuration not stated) gave a pIC50 in series [1] of 5.03. In series [1], `O=C(O)c1ccc(Nc2ccnc3cc(Cl)ccc23)cc1` had a pIC50 of 5.07. Compound `CCOC(=O)C1Cc2c([nH]c3ccccc23)[C@@H](C)N1Cc1cn(-c2ccnc3cc(Cl)ccc23)nn1` (some centres not stated) gave a pIC50 in series [1] of 5.40. On to `C[C@H]1NC(C(=O)NNC(=O)c2ccc(Nc3ccnc4cc(Cl)ccc34)cc2)Cc2c1[nH]c1ccccc21` (some centres not stated), for which the pIC50 in series [1] is 5.92; in series [2], 3.99. In series [3], the selectivity ratio amounted to 84.9. `O=C(CCCNc1ccnc2cc(Cl)ccc12)NNC(=O)C1Cc2c([nH]c3ccccc23)CN1` (configuration not stated) gave a pIC50 in series [1] of 5.51. The compound `C[C@@H]1NC(C(=O)NNC(=O)CNc2ccnc3cc(Cl)ccc23)Cc2c1[nH]c1ccccc21` (some centres not stated) showed a pIC50 in series [1] of 5.30. Consider `C[C@@H]1NC(C(=O)NNC(=O)CCCCCNc2ccnc3cc(Cl)ccc23)Cc2c1[nH]c1ccccc21` (some centres not stated), for which, in series [1], the pIC50 was 5.74. For `CCOC(=O)C1Cc2c([nH]c3ccccc23)CN1Cc1cn(CCNc2ccnc3cc(Cl)ccc23)nn1` (configuration not stated), the pIC50 is 6.07 in series [1] and 3.57 in series [2]. Moreover, in series [3], the selectivity ratio stood at 312. For the compound `CCOC(=O)C1Cc2c([nH]c3ccccc23)CN1Cc1cn(CCCNc2ccnc3cc(Cl)ccc23)nn1` (configuration not stated), the pIC50 in series [1] is 6.31; in series [2] it was 3.61. Also, in series [3], the selectivity ratio was 496.

For the compound `C#CCN1Cc2[nH]c3ccccc3c2CC1C(=O)OCC` (configuration not stated), in series [1], the pIC50 is 5.37. On the same count and under the same terms, the value for `C[C@@H]1NC(C(=O)NNC(=O)CCCNc2ccnc3cc(Cl)ccc23)Cc2c1[nH]c1ccccc21` (some centres not stated) was 5.47; that for `CCOC(=O)C1Cc2c([nH]c3ccccc23)[C@@H](C)N1Cc1cn(CCNc2ccnc3cc(Cl)ccc23)nn1` (some centres not stated) was 6.03. Compound `CCOC(=O)C1Cc2c([nH]c3ccccc23)[C@@H](C)N1Cc1cn(CCCNc2ccnc3cc(Cl)ccc23)nn1` (some centres not stated) gave a negative-log IC50 (pIC50) in series [1] of 5.86. The same measure, in the same setting: then `C#CCN1C(C(=O)OCC)Cc2c([nH]c3ccccc23)[C@H]1C` (some centres not stated), with 5.05. Still for that read-out and setting: the value for `O=C(CCNc1ccnc2cc(Cl)ccc12)NNC(=O)C1Cc2c([nH]c3ccccc23)CN1` (configuration not stated) was 5.51. For the compound `O=C(NNC(=O)C1Cc2c([nH]c3ccccc23)CN1)c1ccc(Nc2ccnc3cc(Cl)ccc23)cc1` (configuration not stated), the pIC50 in series [1] was 6.21; in series [2] it was 4.02. Moreover, in series [3], the selectivity ratio came out at 156. In series [1], `O=C(CCCCCNc1ccnc2cc(Cl)ccc12)NNC(=O)C1Cc2c([nH]c3ccccc23)CN1` (configuration not stated) showed a pIC50 of 5.66.
